# Measured values reported in PubChem BioAssay AID248 (DTP/NCI, 2004).
# Several values for one entry are separate records, joined by “and”; a condition that tells them apart may be missing. Identical values can stand only once. Toxic doses and inconclusive results are not listed.
# Test system: L1210 leukemia ip in BDF1 mice, survival T/C
# Assay: NCI In Vivo Anticancer Drug Screen. Data for tumor model L1210 Leukemia (intraperitoneal) in B6D2F1 (BDF1) mice
# Details: endpoint: mean survival time, higher = longer survival
# In short: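 Each compound was tested against a transplantable tumor grown in mice. The endpoint was survival, with treated animals benchmarked against vehicle controls as a simple ratio.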
smiles,measurement,setting,value
O=C(Nc1ccc(C2=NCCCN2)cc1)c1ccc(C(=O)Nc2ccc(C3=NCCCN3)cc2)cc1,T/C,"dose: 0.5 mg/kg/injection, schedule: Q01DX Z (ip), vehicle: carboxymethylcellulose (CMC)",95 % of control
same,T/C,"dose: 0.5 mg/kg/injection, schedule: Q01DX Z (iv), vehicle: saline",100 % of control
same,T/C,"dose: 0.8 mg/kg/injection, schedule: Q01DX Z (ip), vehicle: carboxymethylcellulose (CMC)",101 % of control
same,T/C,"dose: 1.0 mg/kg/injection, schedule: Q01DX010 (ip), vehicle: other",160 % of control
same,T/C,"dose: 1.0 mg/kg/injection, schedule: Q01DX010 (iv), vehicle: other",103 % of control
same,T/C,"dose: 1.0 mg/kg/injection, schedule: Q01DX Z (iv), vehicle: saline",107 % of control
same,T/C,"dose: 1.2 mg/kg/injection, schedule: Q01DX Z (ip), vehicle: carboxymethylcellulose (CMC)",103 % of control
same,T/C,"dose: 1.9 mg/kg/injection, schedule: Q01DX Z (ip), vehicle: carboxymethylcellulose (CMC)",109 % of control and 211 % of control
same,T/C,"dose: 2.0 mg/kg/injection, schedule: Q01DX010 (ip), vehicle: other",174 % of control and 235 % of control
same,T/C,"dose: 2.0 mg/kg/injection, schedule: Q01DX010 (ip), vehicle: saline",155 % of control
same,T/C,"dose: 2.0 mg/kg/injection, schedule: Q01DX010 (iv), vehicle: other",180 % of control
same,T/C,"dose: 2.0 mg/kg/injection, schedule: Q01DX Z (iv), vehicle: saline",111 % of control
same,T/C,"dose: 2.8 mg/kg/injection, schedule: Q01DX Z (ip), vehicle: carboxymethylcellulose (CMC)",277 % of control
same,T/C,"dose: 4.0 mg/kg/injection, schedule: Q01DX010 (ip), vehicle: other",205 % of control and 217 % of control and 265 % of control
same,T/C,"dose: 4.0 mg/kg/injection, schedule: Q01DX010 (ip), vehicle: saline",208 % of control and 235 % of control
same,T/C,"dose: 4.0 mg/kg/injection, schedule: Q01DX010 (iv), vehicle: other",237 % of control
same,T/C,"dose: 4.0 mg/kg/injection, schedule: Q01DX010 (iv), vehicle: saline",203 % of control
same,T/C,"dose: 4.0 mg/kg/injection, schedule: Q01DX Z (iv), vehicle: other",202 % of control
same,T/C,"dose: 4.0 mg/kg/injection, schedule: Q01DX Z (iv), vehicle: saline",238 % of control
same,T/C,"dose: 4.2 mg/kg/injection, schedule: Q01DX Z (ip), vehicle: carboxymethylcellulose (CMC)",280 % of control
same,T/C,"dose: 6.3 mg/kg/injection, schedule: Q01DX Z (ip), vehicle: carboxymethylcellulose (CMC)",209 % of control and 229 % of control
same,T/C,"dose: 8.0 mg/kg/injection, schedule: Q01DX010 (ip), vehicle: other",97 % of control and 115 % of control
same,T/C,"dose: 8.0 mg/kg/injection, schedule: Q01DX010 (ip), vehicle: saline",229 % of control and 338 % of control
same,T/C,"dose: 8.0 mg/kg/injection, schedule: Q01DX010 (iv), vehicle: saline",161 % of control
same,T/C,"dose: 8.0 mg/kg/injection, schedule: Q01DX Z (iv), vehicle: saline",182 % of control
same,T/C,"dose: 9.4 mg/kg/injection, schedule: Q01DX Z (ip), vehicle: carboxymethylcellulose (CMC)",211 % of control
same,T/C,"dose: 16.0 mg/kg/injection, schedule: Q01DX010 (ip), vehicle: other",103 % of control and 89 % of control
same,T/C,"dose: 16.0 mg/kg/injection, schedule: Q01DX010 (iv), vehicle: saline",117 % of control
same,T/C,"dose: 16.0 mg/kg/injection, schedule: Q01DX010 (sc), vehicle: olive oil, sesame oil, peanut oil",113 % of control
same,T/C,"dose: 21.3 mg/kg/injection, schedule: Q01DX Z (ip), vehicle: carboxymethylcellulose (CMC)",119 % of control
same,T/C,"dose: 22.0 mg/kg/injection, schedule: Q01DX010 (sc), vehicle: olive oil, sesame oil, peanut oil",101 % of control
same,T/C,"dose: 30.0 mg/kg/injection, schedule: Q01DX Z (oral), vehicle: carboxymethylcellulose (CMC)",95 % of control
same,T/C,"dose: 31.3 mg/kg/injection, schedule: Q01DX010 (sc), vehicle: olive oil, sesame oil, peanut oil",119 % of control and 89 % of control
same,T/C,"dose: 31.3 mg/kg/injection, schedule: Q02DX004 (im), vehicle: olive oil, sesame oil, peanut oil",116 % of control and 124 % of control
same,T/C,"dose: 32.0 mg/kg/injection, schedule: Q01DX Z (ip), vehicle: carboxymethylcellulose (CMC)",123 % of control
same,T/C,"dose: 44.0 mg/kg/injection, schedule: Q01DX Z (sc), vehicle: saline",109 % of control
same,T/C,"dose: 48.0 mg/kg/injection, schedule: Q01DX Z (ip), vehicle: carboxymethylcellulose (CMC)",94 % of control
same,T/C,"dose: 60.0 mg/kg/injection, schedule: Q01DX Z (oral), vehicle: carboxymethylcellulose (CMC)",91 % of control
same,T/C,"dose: 62.5 mg/kg/injection, schedule: Q01DX001 (im), vehicle: steriod suspending solution",106 % of control
same,T/C,"dose: 62.5 mg/kg/injection, schedule: Q01DX010 (oral), vehicle: other",111 % of control
same,T/C,"dose: 62.5 mg/kg/injection, schedule: Q02DX004 (im), vehicle: olive oil, sesame oil, peanut oil",100 % of control and 107 % of control
same,T/C,"dose: 66.0 mg/kg/injection, schedule: Q01DX Z (sc), vehicle: saline",102 % of control
same,T/C,"dose: 72.0 mg/kg/injection, schedule: Q01DX Z (ip), vehicle: carboxymethylcellulose (CMC)",100 % of control
same,T/C,"dose: 88.5 mg/kg/injection, schedule: Q#A X Z (oral), vehicle: saline",115 % of control
same,T/C,"dose: 100.0 mg/kg/injection, schedule: Q01DX Z (sc), vehicle: saline",105 % of control
same,T/C,"dose: 120.0 mg/kg/injection, schedule: Q01DX Z (oral), vehicle: carboxymethylcellulose (CMC)",91 % of control
same,T/C,"dose: 125.0 mg/kg/injection, schedule: Q01DX001 (im), vehicle: steriod suspending solution",108 % of control
same,T/C,"dose: 125.0 mg/kg/injection, schedule: Q02DX004 (im), vehicle: olive oil, sesame oil, peanut oil",98 % of control and 105 % of control
same,T/C,"dose: 150.0 mg/kg/injection, schedule: Q01DX Z (sc), vehicle: saline",98 % of control and 103 % of control
same,T/C,"dose: 177.0 mg/kg/injection, schedule: Q01DX Z (oral), vehicle: saline",109 % of control
same,T/C,"dose: 200.0 mg/kg/injection, schedule: Q#A X Z (oral), vehicle: saline",161 % of control
same,T/C,"dose: 250.0 mg/kg/injection, schedule: Q01DX001 (im), vehicle: steriod suspending solution",93 % of control
same,T/C,"dose: 250.0 mg/kg/injection, schedule: Q01DX010 (oral), vehicle: other",183 % of control
same,T/C,"dose: 250.0 mg/kg/injection, schedule: Q02DX004 (im), vehicle: olive oil, sesame oil, peanut oil",100 % of control and 104 % of control
same,T/C,"dose: 300.0 mg/kg/injection, schedule: Q01DX Z (sc), vehicle: saline",105 % of control
same,T/C,"dose: 333.0 mg/kg/injection, schedule: Q## X010 (oral), vehicle: saline",153 % of control
same,T/C,"dose: 400.0 mg/kg/injection, schedule: Q01DX Z (oral), vehicle: saline",158 % of control
same,T/C,"dose: 500.0 mg/kg/injection, schedule: Q01DX010 (oral), vehicle: other",181 % of control
same,T/C,"dose: 500.0 mg/kg/injection, schedule: Q## X010 (oral), vehicle: saline",121 % of control
same,T/C,"dose: 531.0 mg/kg/injection, schedule: Q03DX Z (oral), vehicle: saline",105 % of control
same,T/C,"dose: 600.0 mg/kg/injection, schedule: Q01DX Z (oral), vehicle: saline",151 % of control and 163 % of control
same,T/C,"dose: 798.0 mg/kg/injection, schedule: Q03DX Z (oral), vehicle: saline",107 % of control
same,T/C,"dose: 900.0 mg/kg/injection, schedule: Q01DX Z (oral), vehicle: saline",124 % of control
same,T/C,"dose: 1200.0 mg/kg/injection, schedule: Q03DX Z (oral), vehicle: saline",98 % of control
same,T/C,"dose: 1239.0 mg/kg/injection, schedule: Q07DX Z (oral), vehicle: saline",102 % of control
same,T/C,"dose: 1800.0 mg/kg/injection, schedule: Q03DX Z (oral), vehicle: saline",111 % of control
same,T/C,"dose: 1862.0 mg/kg/injection, schedule: Q07DX Z (oral), vehicle: saline",105 % of control
same,T/C,"dose: 2700.0 mg/kg/injection, schedule: Q03DX Z (oral), vehicle: saline",121 % of control
same,T/C,"dose: 2800.0 mg/kg/injection, schedule: Q07DX Z (oral), vehicle: saline",101 % of control
same,T/C,"dose: 4200.0 mg/kg/injection, schedule: Q07DX Z (oral), vehicle: saline",105 % of control
NC(N)=NCCCC(N)C(=O)O (centres undefined),T/C,"dose: 25.0 mg/kg/injection, schedule: Q04DX002 (ip), vehicle: saline",97 % of control
same,T/C,"dose: 50.0 mg/kg/injection, schedule: Q04DX002 (ip), vehicle: saline",113 % of control
same,T/C,"dose: 100.0 mg/kg/injection, schedule: Q01DX001 (ip), vehicle: saline",97 % of control
same,T/C,"dose: 100.0 mg/kg/injection, schedule: Q01DX009 (ip), vehicle: saline",119 % of control
same,T/C,"dose: 100.0 mg/kg/injection, schedule: Q04DX002 (ip), vehicle: saline",103 % of control and 97 % of control
same,T/C,"dose: 100.0 mg/kg/injection, schedule: Q04DX003 (ip), vehicle: saline",102 % of control and 94 % of control
same,T/C,"dose: 200.0 mg/kg/injection, schedule: Q01DX001 (ip), vehicle: saline",100 % of control
same,T/C,"dose: 200.0 mg/kg/injection, schedule: Q01DX009 (ip), vehicle: saline",95 % of control
same,T/C,"dose: 200.0 mg/kg/injection, schedule: Q04DX002 (ip), vehicle: saline",94 % of control
same,T/C,"dose: 200.0 mg/kg/injection, schedule: Q04DX003 (ip), vehicle: saline",105 % of control and 90 % of control
same,T/C,"dose: 400.0 mg/kg/injection, schedule: Q01DX001 (ip), vehicle: saline",103 % of control
same,T/C,"dose: 400.0 mg/kg/injection, schedule: Q01DX009 (ip), vehicle: saline",97 % of control
same,T/C,"dose: 400.0 mg/kg/injection, schedule: Q04DX002 (ip), vehicle: saline",94 % of control
same,T/C,"dose: 400.0 mg/kg/injection, schedule: Q04DX003 (ip), vehicle: saline",109 % of control and 97 % of control
